Experimental findings from patent US20190218226A1, “PRODRUGS OF ANTICANCER AGENTS INDOTECAN AND INDIMITECAN” (Purdue Research Foundation, priority 2016, published 2019) are described below.

Where two headings read alike, the source gives them in different places.

Series [1] relates to HOP-62. In words: NCI60 antiproliferative screen, lung HOP-62. The conditions noted are these: HOP-62, 48 h, sulforhodamine B, read-out: Cytotoxicity (GI50) lung HOP-62. The series is classed as cell-based, human. As for the experimental part:
(§1) All of the indenoisoquinolines were tested for antiproliferative activity in the National Cancer Institute's 60 cell line screen (NCI60). The cells were incubated with the tested compounds at 100, 10, 1, 0.1, and 0.01 μM concentrations for 48 h before treatment with sulforhodamine B dye. Optical densities were recorded, and their ratios relative to that of the control were plotted as percentage growth against the log 10 of the tested compound concentrations. The concentration that corresponds to 50% growth inhibition (GI50) is calculated by interpolation between the points located above and below the 50% percentage growth. The mean-graph midpoint (MGM) is an estimated average of the GI50 values derived from the NCI collection of 60 human cancer cell lines, where during the MGM calculation, anticancer agents with GI50 values that are outside the testing range of 0.01-100 μM are arbitrarily assigned the values of 0.01 and 100 μM, respectively. […] Also, the GI50 values of many of the substances vs. individual human cancer cell lines are below the lowest concentration used (0.01 μM) in the standard NCI testing protocol. […] For example, the MGM cytotoxicity values of 9, 15-17, and 19 are all very close to each other, but the Top1 inhibitory activities range from +++(+) to 0.

Series [2] has as its system HCT-116. In words: NCI60 antiproliferative screen, colon HCT-116. Format: cell-based, human. The settings on record: HCT-116, 48 h, sulforhodamine B, read-out: Cytotoxicity (GI50) Colon HCT-116. As for the experimental part: as §1
Series [3] deals with SF-539. As to the kind of experiment: NCI60 antiproliferative screen, CNS SF-539. The series is classed as cell-based, human. The conditions noted are these: SF-539, 48 h, sulforhodamine B, read-out: Cytotoxicity (GI50) CNS SF-539. As for the experimental part:
as §1

For series [4], the system named is UACC-62. In words: NCI60 antiproliferative screen, melanoma UACC-62. The series is classed as cell-based, human. The conditions noted are these: UACC-62, 48 h, sulforhodamine B, read-out: Cytotoxicity (GI50) melanoma UACC-62. The protocol: as §1
Series [5] deals with OVCAR-3. As to the kind of experiment: NCI60 antiproliferative screen, ovarian OVCAR-3. Format: cell-based, human. The settings on record: OVCAR-3, 48 h, sulforhodamine B, read-out: Cytotoxicity (GI50) Ovarian OVCAR-3. As for the experimental part: as §1
For series [6], the system named is SN12C. As to the kind of experiment: NCI60 antiproliferative screen, renal SN12C. The series is classed as cell-based, human. The conditions noted are these: 48 h, sulforhodamine B, read-out: Cytotoxicity (GI50) renal SN12C. The protocol:
as §1

For series [7], the system named is DU-145. As to the kind of experiment: NCI60 antiproliferative screen, prostate DU-145. The series is classed as cell-based, human. The settings on record: DU-145, 48 h, sulforhodamine B, read-out: Cytotoxicity (GI50) prostate DU-145. The protocol: as §1
Series [8] has as its system MCF-7. In words: NCI60 antiproliferative screen, breast MCF-7. Format: cell-based, human. The conditions noted are these: MCF-7, 48 h, sulforhodamine B, read-out: Cytotoxicity (GI50) breast MCF-7. As for the experimental part: as §1
Series [9] has as its system all human cancer cell lines successfully tested (NCI60). In words: NCI60 mean graph midpoint for growth inhibition. Format: cell-based. The conditions noted are these: for mean GI50 across NCI60 cell lines (MGM): all human cancer cell lines successfully tested, ± standard error, read-out: MGM (mean graph midpoint for growth inhibition). The protocol:
as §1

Series [10] has as its target T1, Human recombinant Top1 (Homo sapiens, UniProt P11387).
T1 construct: made in house
T1 sequence (P11387 1-765): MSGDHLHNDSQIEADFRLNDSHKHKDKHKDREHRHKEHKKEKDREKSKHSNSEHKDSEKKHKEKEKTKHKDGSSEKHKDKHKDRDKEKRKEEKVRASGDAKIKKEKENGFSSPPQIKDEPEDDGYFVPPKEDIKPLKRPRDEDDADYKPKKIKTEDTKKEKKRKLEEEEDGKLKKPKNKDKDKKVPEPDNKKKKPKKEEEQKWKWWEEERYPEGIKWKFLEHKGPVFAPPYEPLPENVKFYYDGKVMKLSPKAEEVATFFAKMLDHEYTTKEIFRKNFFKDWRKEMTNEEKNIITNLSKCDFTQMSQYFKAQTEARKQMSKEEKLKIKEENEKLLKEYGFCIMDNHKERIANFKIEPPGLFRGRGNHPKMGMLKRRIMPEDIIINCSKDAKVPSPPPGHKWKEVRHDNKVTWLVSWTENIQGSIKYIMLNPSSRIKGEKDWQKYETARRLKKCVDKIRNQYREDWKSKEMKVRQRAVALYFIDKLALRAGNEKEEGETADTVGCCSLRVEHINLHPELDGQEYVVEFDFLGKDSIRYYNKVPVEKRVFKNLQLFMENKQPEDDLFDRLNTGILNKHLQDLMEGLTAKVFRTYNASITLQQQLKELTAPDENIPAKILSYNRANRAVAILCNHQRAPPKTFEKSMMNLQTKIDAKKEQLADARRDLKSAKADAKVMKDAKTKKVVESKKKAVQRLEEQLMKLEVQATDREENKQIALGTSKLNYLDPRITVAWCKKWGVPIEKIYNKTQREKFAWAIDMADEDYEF
As to the kind of experiment: Top1-mediated DNA cleavage assay. The series is classed as biochemical. The settings on record: for Top 1 Cleavage: graded relative to 1 μM camptothecin; for Top1 inhibitory activity (level): scored relative to compounds 1 and 4. Set-up: key to Top1 inhibitory activity (level): 0, no detectable activity; +, weak activity; ++, similar activity to compound 4; +++, greater activity than 4; ++++, equipotent with 1; ++(+) would be between ++ and +++; key to Top 1 Cleavage: 0, no inhibitory activity; +, between 20 and 50% activities; ++, between 50 and 75% activity; +++, between 75 and 95% activity; ++++, equipotent. As for the experimental part:
All of the new indenoisoquinoline derivatives were tested in Top1-mediated DNA cleavage assays. For this purpose, a ^32P 3′-end labeled 117-bp DNA fragment was incubated with Top1 at four concentrations of a tested compound. The DNA fragments were separated on 20% PAGE denaturing gels. The Top1 inhibitory activities were assigned on the basis of the visual inspection of the number and intensities of the gel bands corresponding to Top1-mediated DNA cleavage fragments and scored relative to the Top1 inhibitory activity of compounds 1 and 4. Results are expressed in semiquantitative fashion: 0, no detectable activity; +, weak activity; ++, similar activity to compound 4; +++, greater activity than 4; ++++, equipotent with 1. Ambiguous scores (e.g., between two values) are designated with parentheses (e.g., ++(+) would be between ++ and +++). […] After conversion of the hydroxyl to a dimethylcarbamate, the observed Top1 inhibitory activity increased from ++(+) for compound 8 to +++ for compound 10. Introduction of an acetyl group at the 0-2 position yielded compound 11, which was also a Top1 poison with activity at the ++ level. Subsequently, several hydrophobic substituents were attached to the 0-2 position.
Topoisomerase I-Mediated DNA Cleavage Reactions.
Human recombinant Top1 was purified from baculovirus as previously described (Morrell, A., et al., J. Med. Chem. 2007, 50, 2040-2048). DNA cleavage reactions were prepared as previously reported with the exception of the DNA substrate (Strumberg, D., et al., J. Med. Chem. 1999, 42, 446-457). Briefly, a 117-bp DNA oligonucleotide (Integrated DNA Technologies) encompassing the previously identified Top1 cleavage sites in the 161-bp fragment from pBluescript SK(−) phagemid DNA was employed. This 117-bp oligonucleotide contains a single 5′-cytosine overhang, which was 3′-end-labeled by fill-in reaction with [α-^32P]dGTP in React 2 buffer (50 mM Tris-HCl, pH 8.0, […], 50 mM NaCl) with 0.5 unit of DNA polymerase I (Klenow fragment, New England BioLabs). Unincorporated [^32P]dGTP was removed using mini Quick Spin DNA columns (Roche, Indianapolis, Ind.), and the eluate containing the 3′-end-labeled DNA substrate was collected. Approximately 2 nM radiolabeled DNA substrate was incubated with recombinant Top1 in 20 μL of reaction buffer [10 mM Tris-HCl (pH 7.5), 50 mM KCl, 5 mM MgCl2, 0.1 mM EDTA, and 15 μg/mL BSA] at 25° C. for 20 min in the presence of various concentrations of compounds. The reactions were terminated by adding SDS (0.5% final concentration) followed by the addition of two volumes of loading dye (80% formamide, 10 mM sodium hydroxide, 1 mM sodium EDTA, 0.1% xylene cyanol, and 0.1% bromophenol blue). Aliquots of each reaction mixture were subjected to 20% denaturing PAGE. Gels were dried and visualized by using a phosphoimager and ImageQuant software (Molecular Dynamics). For simplicity, cleavage sites were numbered as previously described in the 161-bp fragment.

For the compound `COc1cc2c3c(n(CCCN4CCOCC4)c(=O)c2cc1OC(C)=O)-c1cc2c(cc1C3=O)OCO2` [Compound 16, 2-Methoxy-6-(3-morpholinopropyl)-5,12-dioxo-6,12-dihydro-5H-[1,3]dioxolo[4′,5′:5,6]indeno[1,2-c]isoquinolin-3-yl Acetate], the 50% growth inhibitory concentration (GI50) in [1] is below 10 nM; in series [2] it was below 10 nM; in series [3] it was below 10 nM; in series [4] it was below 10 nM; in series [5] it was 269 nM; in series [6], below 10 nM. For the same compound, the 50% growth inhibitory concentration (GI50) in series [7] and in series [8] was below 10 nM each time. Also, in series [9], the mean GI50 across NCI60 cell lines (MGM) stood at 95 ± 45 nM. In addition, in series [10], the “Top 1 Cleavage” value is on record as 0.

Take `COC(=O)CCC(=O)Oc1cc2c3c(n(CCCN4CCOCC4)c(=O)c2cc1OC)-c1cc2c(cc1C3=O)OCO2` [Compound 12, 3-Methoxy-6-(3-morpholinopropyl)-5,12-dioxo-6,12-dihydro-5H-[1,3]dioxolo[4′,5′:5,6]indeno[1,2-c]isoquinolin-2-yl Methyl Succinate]: the GI50 in series [1] was below 10 nM; in series [2], 14 nM; in series [3] it was below 10 nM; in series [4], below 10 nM; in series [5] it was 66 nM; in series [6], below 10 nM. In addition, the concentration for 50% growth inhibition (GI50) in series [7] and in series [8] was below 10 nM each time. Further, the “cytotoxicity relative to parent compound (in words)” value in series [9] (NCI60) was “greater than the parent 8 by a factor of almost one order of magnitude”. Besides, the mean GI50 across NCI60 cell lines (MGM) in series [9] was 49 ± 8 nM. For the same compound, in [10], the “Top 1 Cleavage” value is “+ (+, between 20 and 50% activities)”. Further, the “Top1 inhibitory activity (level)” value in series [10] is “+”.

Take `COc1cc2c3c(n(CCCN4CCOCC4)c(=O)c2cc1O)-c1cc2c(cc1C3=O)OCO2` [Compound 9]: the 50% growth inhibitory concentration (GI50) was 10 nM in series [1] (Homo sapiens); 20 nM in series [2] (Homo sapiens); below 10 nM in [3] (Homo sapiens); below 10 nM in [4] (Homo sapiens); 30 nM in series [5] (Homo sapiens); below 10 nM in series [6] (Homo sapiens). For the same compound, the GI50 is below 10 nM in [7] (Homo sapiens) and below 10 nM in series [8] (Homo sapiens, MCF7). Further, in series [9], the mean GI50 across NCI60 cell lines (MGM) turned out to be 76 ± 28 nM.

As for `COc1cc2c(=O)n(CCCN3CCOCC3)c3c(c2cc1OC(=O)c1ccccc1)C(=O)c1cc2c(cc1-3)OCO2` [Compound 13, 3-Methoxy-6-(3-morpholinopropyl)-5,12-dioxo-6,12-dihydro-5H-[1,3]dioxolo[4′,5′:5,6]indeno[1,2-c]isoquinolin-2-yl Benzoate], the GI50 is 79 nM in series [1]; 850 nM in series [2]; 37 nM in series [3]; 96 nM in series [4]; 4570 nM in series [5]; 54 nM in series [6]. Besides, the 50% growth inhibitory concentration (GI50) worked out at 51 nM in series [7] and 33 nM in [8]. The “GI50's against various cell lines (range in words)” value in series [9] (NCI60) is recorded as “micromolar range”. The “cytotoxicity relative to parent compound (in words)” value in [9] (NCI60) is on record as “significantly less cytotoxic than their respective parent compounds”. The mean GI50 across NCI60 cell lines (MGM) in [9] was 1500 ± 170 nM. Also, the “Top1 inhibitory activity (in words)” value in series [10] is on record as “weak Top1 poisons”. In addition, in [10], the “Top 1 Cleavage” value is “+ (+, between 20 and 50% activities)”. Further, the “Top1 inhibitory activity (level)” value in [10] is “+”.
